A short description of the experiment: Concentration required for inhibition of serine/threonine protein phosphatase calcineurin (CAN).

2 compounds from BindingDB's records for doi:10.1016/s0960-894x(99)00335-2 (Merck Research Laboratories, 1999) can be followed below.

Broadly, the IC50 is the point on the concentration scale where inhibition reaches its midpoint. For `CC[C@@H]1/C=C(\C)C[C@H](C)C[C@H](OC)[C@H]2O[C@@](O)(C(=O)C(=O)N3CCCC[C@H]3C(=O)O[C@H](/C(C)=C/[C@@H]3CC[C@@H](OCCCc4ccccc4)[C@H](OC)C3)[C@H](C)[C@@H](O)CC1=O)[C@H](C)C[C@@H]2OC` [C32-O-Phenalkyl ether derivative of Ascomycin], the 50% inhibitory concentration (IC50) turned out to be 14 nM. Under `CC[C@@H]1/C=C(\C)C[C@H](C)C[C@H](OC)[C@H]2O[C@@](O)(C(=O)C(=O)N3CCCC[C@H]3C(=O)O[C@H](/C(C)=C/[C@@H]3CC[C@@H](OCCc4ccccc4)[C@H](OC)C3)[C@H](C)[C@@H](O)CC1=O)[C@H](C)C[C@@H]2OC` [C32-O-Phenalkyl ether derivative of Ascomycin] stands 7.2 nM.
